# Experiments:
# human GST-CLK1 = biological target: T1, human GST-CLK1 (Homo sapiens, UniProt P49759); assay: GST-CLK1 enzyme inhibition, ADP-Glo kinase assay; assay type: biochemical; conditions: ATP 10 μM, GST-CLK1 129-end
# T1 construct: purified human GST-CLK1 (129-end, SignalChem) enzyme; purchased SignalChem
# Outline: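 Human GST-CLK1 (129-end, 3 ng) reacted with substrate and 10 μM ATP for 1 h at 25° C in 40 mM Tris-HCl pH 7.4, 20 mM MgCl2, 0.5 mg/mL BSA, 50 μM DTT. ADP-Glo luminescence was normalised to solvent control; IC50 (nM) from 3 data sets.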
# SHP-77 = assay: Inhibition of proliferation of SHP-77 cancer cells (Cell Titer-Glo); assay type: cell-based; conditions: Homo sapiens, SHP77, 72 hours
# Outline: (§1)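 GI50 values derive from Cell Titer-Glo luminescence, measured after a 10-minute room-temperature incubation with the reagent. Before that, cells plated at 2,000 per well in DMEM or RPMI medium were treated for 72 h with compound at 11 final concentrations spanning 10 μM down to 0.000169 μM in threefold steps.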
# human GST-DYRK1A = biological target: T2, human GST-DYRK1A (Homo sapiens, UniProt Q13627); assay: GST-DYRK1A enzyme inhibition, ADP-Glo kinase assay; assay type: biochemical; conditions: ATP 10 μM, GST-DYRK1A full length, read-out: DYRK1 IC50
# T2 construct: purified human GST-DYRK1A (full length, Thermo Scientifics) enzyme; purchased Thermo Scientifics
# Outline: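 Full-length human GST-DYRK1A (10 ng) with 10 μM ATP and specific substrate in 40 mM Tris-HCl pH 7.4, 20 mM MgCl2, 0.5 mg/mL BSA, 50 μM DTT, 1 h at 25 °C. ADP formation read by ADP-Glo luminescence relative to solvent control; IC50 from three data sets.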
# TTK = biological target: T3, TTK (Homo sapiens, UniProt P33981); assay: TTK enzyme inhibition, ADP-Glo kinase assay; assay type: biochemical; set-up: purchased SignalChem T20-10G; conditions: ATP 5 μM
# T3 sequence (P33981 1-857): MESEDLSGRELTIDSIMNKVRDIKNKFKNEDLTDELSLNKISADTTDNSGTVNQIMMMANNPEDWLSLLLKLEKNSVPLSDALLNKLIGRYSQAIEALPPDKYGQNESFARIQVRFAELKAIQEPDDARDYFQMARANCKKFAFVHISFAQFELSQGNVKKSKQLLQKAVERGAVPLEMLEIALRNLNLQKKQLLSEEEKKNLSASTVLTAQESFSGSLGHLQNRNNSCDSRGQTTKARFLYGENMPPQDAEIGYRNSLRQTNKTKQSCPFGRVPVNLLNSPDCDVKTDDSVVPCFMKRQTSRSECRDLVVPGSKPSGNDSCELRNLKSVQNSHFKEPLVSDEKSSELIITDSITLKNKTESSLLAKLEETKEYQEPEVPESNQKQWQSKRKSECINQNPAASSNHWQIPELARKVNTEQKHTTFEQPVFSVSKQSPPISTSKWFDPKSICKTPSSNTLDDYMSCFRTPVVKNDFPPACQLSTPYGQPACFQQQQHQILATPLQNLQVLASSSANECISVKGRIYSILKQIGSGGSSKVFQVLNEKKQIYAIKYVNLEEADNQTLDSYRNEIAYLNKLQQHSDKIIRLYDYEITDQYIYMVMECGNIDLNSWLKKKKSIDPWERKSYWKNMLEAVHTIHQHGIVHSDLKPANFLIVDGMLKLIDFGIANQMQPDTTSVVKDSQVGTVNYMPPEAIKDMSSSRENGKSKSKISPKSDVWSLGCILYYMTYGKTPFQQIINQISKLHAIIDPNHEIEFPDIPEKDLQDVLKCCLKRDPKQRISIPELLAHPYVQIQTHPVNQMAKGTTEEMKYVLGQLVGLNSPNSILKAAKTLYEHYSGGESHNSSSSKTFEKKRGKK
# Protocol: To evaluate an inhibitory activity of the compound according to the present invention against LRRK2, LRRK2 (G2019S), DYRK1, CLK1, and TTK kinases, experiments were performed as follows.
# Each of the Example compounds was reacted with a purified human TTK (SignalChem #T20-10G) enzyme to evaluate an ability to inhibit an enzyme using a method as described below. A composition of 40 mM Tris-HCl (pH 7.4), 20 mM MgCl2, 0.1 mg/mL BSA (a 5× kinase buffer, SignalChem #K03-09), and 50 μM DTT (SignalChem #D86-09B) was used as a reaction buffer, and all reactions of test substances were performed in the reaction buffer. Each of the compounds was diluted […] from a 10 mM DMSO stock using a serial dilution method, and enzyme activities were measured at final compound concentrations of 1, 0.333333, 0.111111, 0.037037, 0.012346, 0.004115, 0.001372, 0.000457, 0.000152, 0.000051, and 0.000017 μM. In the test, purified ATP (5 μM, Promega #V6930) and an MBP enzyme substrate (0.2 μg, SignalChem M42-51N) were reacted with a human TTK (7.5 ng) enzyme at 25° C. for 4 hours, and the enzyme activities were then determined using an in vitro ADP-Glo™ kinase assay (Promega #V6930). An enzyme-activity reaction solution, an ADP-Glo reaction solution, and an enzyme-ability detection solution were reacted at a ratio of 2:2:1 to measure a degree of inhibition of the enzyme activity with luminescence. The degree of inhibition of the enzyme activity according to the treatment concentration of each of the compounds was calculated based on the fluorescence of the enzyme activity of the solvent control which was not treated with the compound. In this case, the concentration of each of the compounds inhibiting 50% of the enzyme activity was determined to be an IC50 (nM) value, and calculated using Prism (Version 8.2 GraphPad) software.
# MDA-MB-231 cell line = assay: Inhibition of proliferation of MDA-MB-231 cancer cells (Cell Titer-Glo); assay type: cell-based; conditions: Homo sapiens, 72 hours
# Outline: as §1
# MDA-MB-468 cell line = assay: Inhibition of proliferation of MDA-MB-468 cancer cells (Cell Titer-Glo); assay type: cell-based; conditions: Homo sapiens, MDA-MB-468, 72 hours
# Outline: as §1
# LRRK2 (G2019S) = LRRK2 (G2019S) (Homo sapiens, UniProt Q5S007, G2019S); assay: LRRK2 G2019S enzyme inhibition, ADP-Glo kinase assay; assay type: biochemical; set-up: purchased SignalChem L10-12GG; conditions: ATP 25 μM
# LRRK2 (G2019S), sequence (Q5S007 970-2527 G2019S limits assumed): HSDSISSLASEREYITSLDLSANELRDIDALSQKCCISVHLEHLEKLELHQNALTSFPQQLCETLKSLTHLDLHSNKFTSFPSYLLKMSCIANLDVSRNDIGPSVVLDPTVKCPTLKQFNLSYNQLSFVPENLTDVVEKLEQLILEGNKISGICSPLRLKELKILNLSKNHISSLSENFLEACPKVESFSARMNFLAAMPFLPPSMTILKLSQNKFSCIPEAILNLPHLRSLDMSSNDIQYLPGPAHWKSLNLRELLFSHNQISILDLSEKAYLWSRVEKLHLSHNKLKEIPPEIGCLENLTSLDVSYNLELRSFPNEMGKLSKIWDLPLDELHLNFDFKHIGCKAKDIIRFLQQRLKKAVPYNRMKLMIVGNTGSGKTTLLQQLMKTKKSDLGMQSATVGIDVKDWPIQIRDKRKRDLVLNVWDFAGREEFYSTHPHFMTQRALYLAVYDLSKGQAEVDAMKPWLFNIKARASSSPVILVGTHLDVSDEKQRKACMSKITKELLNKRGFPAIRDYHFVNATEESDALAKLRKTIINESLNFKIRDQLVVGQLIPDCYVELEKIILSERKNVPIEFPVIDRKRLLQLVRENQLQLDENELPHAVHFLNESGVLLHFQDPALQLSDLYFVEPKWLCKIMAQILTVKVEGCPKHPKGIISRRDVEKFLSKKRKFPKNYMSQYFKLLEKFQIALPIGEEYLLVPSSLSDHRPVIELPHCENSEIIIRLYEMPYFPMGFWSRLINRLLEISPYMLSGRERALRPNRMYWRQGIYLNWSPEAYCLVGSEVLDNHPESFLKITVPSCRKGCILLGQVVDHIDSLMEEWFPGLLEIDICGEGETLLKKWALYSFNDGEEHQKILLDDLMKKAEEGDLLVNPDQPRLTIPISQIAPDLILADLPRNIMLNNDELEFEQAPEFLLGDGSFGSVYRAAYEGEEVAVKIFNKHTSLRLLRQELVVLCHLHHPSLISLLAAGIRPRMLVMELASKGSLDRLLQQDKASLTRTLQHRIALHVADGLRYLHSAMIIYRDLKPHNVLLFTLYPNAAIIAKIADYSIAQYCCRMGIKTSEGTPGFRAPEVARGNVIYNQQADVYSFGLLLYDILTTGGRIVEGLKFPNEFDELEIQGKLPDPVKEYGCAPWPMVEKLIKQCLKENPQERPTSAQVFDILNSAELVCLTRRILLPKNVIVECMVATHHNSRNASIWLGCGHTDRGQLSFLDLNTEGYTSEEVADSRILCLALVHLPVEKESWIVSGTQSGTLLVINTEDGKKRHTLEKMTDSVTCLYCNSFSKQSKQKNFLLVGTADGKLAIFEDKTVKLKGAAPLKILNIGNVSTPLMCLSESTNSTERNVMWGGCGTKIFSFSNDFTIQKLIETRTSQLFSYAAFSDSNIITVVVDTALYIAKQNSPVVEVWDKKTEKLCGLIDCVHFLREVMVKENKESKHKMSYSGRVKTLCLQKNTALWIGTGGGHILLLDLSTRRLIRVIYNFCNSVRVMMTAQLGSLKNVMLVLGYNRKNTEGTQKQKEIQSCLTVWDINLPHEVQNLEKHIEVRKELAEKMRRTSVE
# Outline: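 Purified human LRRK2 G2019S (16 ng) with 25 μM ATP and 0.2 μg substrate, 2 h at 25° C. in Tris-HCl pH 7.4, MgCl2, BSA, DTT buffer; compounds at 12 final concentrations, 50 μM down to 0.000001024 μM. ADP-Glo luminescence versus solvent control gave IC50.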
# IL-6 = assay: Inhibition of LPS-induced IL-6 secretion of THP-1 monocytes (ELISA); assay type: cell-based, human; conditions: Homo sapiens, THP-1; compound 0.5 μM, LPS 500 ng/mL, 24 hours; read-out: THP1/IL6 (% inhib)
# Protocol: (§2) To evaluate an inhibitory effect on cytokine secretion of monocytes, THP-1 cells (ATCC, #TIB-202) as a human-derived monocyte line were cultured in an RPMI-1640 (Hyclone, SH30027.01) medium supplemented with 10% fetal bovine serum (Hyclone, SH30084.03), 1% penicillin streptomycin (Welgene, LS202-02), and 50 μM 2-mercaptoethanol (Gibco, #21985023). In the test, the cells were seeded in a 48-well plate (SPL, #30048) at a density of 1.5 to 2×10^5 cells/250 μL per well, and cultured at 37° C. for 16 hours in a 5% CO2 incubator. Thereafter, the compound was diluted with DMSO so that the final concentration of the compound was 0.5 μM. Then, the cells were treated with the diluted compound before an hour of treatment with lipopolysaccharides (LPS) (Sigma, #L6529). After the treatment with the compound, the cells were treated with LPS so that the final concentration was 500 ng/mL. Then, a cell culture broth was collected after 24 hours of culture, and levels of cytokine IL-6 (R&D Systems, #D6050) and TNF-α (R&D Systems, #DTA00D) comprised in the culture broth were measured using respective ELISA kits. After an experiment was performed according to the manufacturer's guidelines, cell analysis was performed by measuring the optical density at 450 nm using a microplate reader.
# LRRK2 = LRRK2 (Homo sapiens, UniProt Q5S007); assay: LRRK2 enzyme inhibition, ADP-Glo kinase assay; assay type: biochemical; set-up: purchased Invitrogen PR8604B; conditions: ATP 10 μM
# LRRK2, sequence (Q5S007 970-2527 limits assumed): as the sequence (Q5S007 970-2527 G2019S limits assumed) above, with S1050G counted along it
# Outline: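 Purified human LRRK2 (25 ng) with 10 μM ATP and 0.2 μg substrate in 40 mM Tris-HCl pH 7.4, 20 mM MgCl2, 0.5 mg/mL BSA, 50 μM DTT, 2 h at 25° C. ADP-Glo luminescence; 12-point compound series from 50 μM final; IC50 relative to solvent control.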
# TNF-α = assay: Inhibition of LPS-induced TNF-α secretion of THP-1 monocytes (ELISA); assay type: cell-based, human; conditions: Homo sapiens, THP-1; compound 0.5 μM, LPS 500 ng/mL, 24 hours; read-out: THP-1/TNF-α (% inhib)
# Protocol: as §2
# T1 sequence (P49759 129-484 limits assumed): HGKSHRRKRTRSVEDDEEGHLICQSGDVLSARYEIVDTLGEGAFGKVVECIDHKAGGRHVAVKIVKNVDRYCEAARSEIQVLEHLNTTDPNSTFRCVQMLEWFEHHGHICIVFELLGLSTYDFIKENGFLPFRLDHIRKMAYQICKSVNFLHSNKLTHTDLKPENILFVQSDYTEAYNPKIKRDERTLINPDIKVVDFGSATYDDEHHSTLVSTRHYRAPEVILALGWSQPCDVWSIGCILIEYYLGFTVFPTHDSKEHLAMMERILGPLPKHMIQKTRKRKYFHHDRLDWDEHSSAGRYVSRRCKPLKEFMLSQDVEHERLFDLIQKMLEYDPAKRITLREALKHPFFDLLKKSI
SMILES,IC50 (human GST-CLK1),GI50 (SHP-77),IC50 (human GST-DYRK1A),IC50 (TTK),GI50 (MDA-MB-231 cell line),GI50 (MDA-MB-468 cell line),IC50 (LRRK2 (G2019S)),IC50 (LRRK2),inhibition at 0.5 µM (IL-6),inhibition at 0.5 µM (TNF-α)
"CC[C@@H](C)Nc1nc(Nc2ccc(S(=O)(=O)N3CCOCC3)cc2OC)nc2[nH]cc(C#N)c12 [Example 67, (R)-4-(sec-butylamino)-2-((2-methoxy-4-(morpholinosulfonyl)phenyl)amino)-7H-pyrrolo[2,3-d]pyrimidine-5-carbonitrile]",0.301 to 1 µM,< 50 nM,0.301 to 1 µM,< 0.1 µM,< 50 nM,,,,,
"N#Cc1c[nH]c2nc(Nc3ccc(C(=O)N4CCOCC4)c4c3OCO4)nc(NC3CCCCC3)c12 [Example 150, 4-(cyclohexylamino)-2-((7-(morpholine-4-carbonyl)benzo[d][1,3]dioxol-4-yl)amino)-7H-pyrrolo[2,3-d]pyrimidine-5-carbonitrile]",0.301 to 1 µM,,0.301 to 1 µM,< 0.1 µM,51 to 100 nM,51 to 100 nM,,,,
"COCCNc1nc(Nc2ccc(C(=O)N3C[C@@H]4C[C@H]3CO4)c3c2OCCO3)nc2[nH]cc(C(F)(F)F)c12 [Example 410, ((LS,4S)-2-oxa-5-azabicyclo[2.2.1]heptan-5-yl)(8-((4-((2-methoxy-ethyl)amino)-5-(trifluoromethyl)-7H-pyrrolo[2,3-d]pyrimidin-2-yl)amino)-2,3-dihydrobenzo[b] [1,4]dioxin-5-yl)methanone]",< 0.1 µM,,< 0.1 µM,,,,,< 0.1 µM,17.8%,
"O=C(c1ccc(Nc2nc(NC3CCOCC3)c3c(C(F)(F)F)c[nH]c3n2)c2c1OCCO2)N1CCN(C2COC2)CC1 [Example 420, (4-(oxetan-3-yl)piperazin-1-yl)(8-((4-((tetrahydro-2H-pyran-4-yl)amino)-5-(trifluoromethyl)-7H-pyrrolo[2,3-d]pyrimidin-2-yl)amino)-2,3-dihydrobenzo[b] [1,4]dioxin-5-yl)methanone]",< 0.1 µM,,< 0.1 µM,,,,,< 0.1 µM,20.2%,31.6%

# More lines, main results first:
IC50 (human GST-CLK1),GI50 (SHP-77),IC50 (human GST-DYRK1A),IC50 (TTK),GI50 (MDA-MB-231 cell line),GI50 (MDA-MB-468 cell line),IC50 (LRRK2 (G2019S)),IC50 (LRRK2),SMILES,inhibition at 0.5 µM (IL-6),inhibition at 0.5 µM (TNF-α)
0.101 to 0.3 µM,,0.301 to 1 µM,< 0.1 µM,101 to 300 nM,51 to 100 nM,,,"CCN1CCP(=O)(c2ccc(Nc3nc(NC4CCCCC4)c4c(C#N)c[nH]c4n3)c(OC)c2)CC1 [Example 151, 4-(cyclohexylamino)-2-((4-(1-ethyl-4-oxido-1,4-azaphosphinan-4-yl)-2-methoxyphenyl)amino)-7H-pyrrolo[2,3-d]pyrimidine-5-carbonitrile]",,
< 0.1 µM,,0.101 to 0.3 µM,< 0.1 µM,51 to 100 nM,51 to 100 nM,,,"N#Cc1c[nH]c2nc(Nc3ccc(C(=O)N4CCOCC4)c4c3OCO4)nc(NC3CCCC3)c12 [Example 152, 4-(cyclopentylamino)-2-((7-(morpholine-4-carbonyl)benzo[d][1,3]dioxol-4-yl)amino)-7H-pyrrolo[2,3-d]pyrimidine-5-carbonitrile]",,
< 0.1 µM,,< 0.1 µM,,,,< 0.1 µM,< 0.1 µM,"CCNc1nc(Nc2ccc(C(=O)N3CCOCC3)c3c2OCO3)nc2[nH]cc(C(F)(F)F)c12 [Example 212, (7-((4-(ethylamino)-5-(trifluoromethyl)-7H-pyrrolo[2,3-d]pyrimidin-2-yl)amino)benzo[d][1,3]dioxol-4-yl)(morpholino)methanone]",12.6%,
< 0.1 µM,,< 0.1 µM,,,,< 0.1 µM,< 0.1 µM,"CCNc1nc(Nc2ccc(C(=O)N3CCC(N4CCOCC4)CC3)c3c2OCO3)nc2[nH]cc(C(F)(F)F)c12 [Example 213, (7-((4-(ethylamino)-5-(trifluoromethyl)-7H-pyrrolo[2,3-d]pyrimidin-2-yl)amino)benzo[d][1,3]dioxol-4-yl)(4-morpholinopiperidin-1-yl)methanone]",32.4%,11.5%

# Source: patent publication US20230066011A1, “PYRROLOPYRIMIDINE DERIVATIVE, AND PHARMACEUTICAL COMPOSITION FOR PREVENTING OR TREATING PROTEIN KINASE-RELATED DISEASE COMPRISING SAME AS ACTIVE INGREDIENT” (VORONOI CO., LTD., priority 2019, published 2023)
